In patent publication US20250145601A1, “NOVEL BICYCLIC COMPOUNDS AS RAD51 INHIBITORS” (SATYA THERAPEUTICS, INC., priority 2022, published 2025):

system: MDA MB 231 cells; assay: Antiproliferation assay in MDA MB 231 cells (Cell Titer Glo); format: cell-based; conditions: Homo sapiens, MDA-MB-231, 216 h, MDAMB231 cell line, 9 day treatment, racemic compounds (Table 2)
Experimental: Antiproliferation Assay in MDA MB 231 Cells MDA MB 231 cells were seeded in 96 well plate at a seeding density of 250 cells/well. The cells were allowed to settle overnight under standard incubator conditions (37° C., 5% CO2). Next day treatment with increasing dose of test compounds and reference compounds were done to the respective wells and the cells were further incubated under standard cell culture conditions for another 4 days. On the 5th day, media was replenished with fresh treatment and cells were incubated for a total of 9 day treatment period. On the day of termination, appropriate volume of Cell Titer Glo reagent was added to the treatment (and control) wells and the plates were kept on a plate shaker @300 RPM for 15 min. Luminiscence reading (RLU) was […] RLU is directly proportional to ATP content and is directly related to number of metabolically active cells in the respective well. Calculation: a. Blank Correction: RLU of the Wells Containing No Cells is Considered as Blank and Subtracted from all RLU of the Treated and Control Wells [formula]

| Structure (SMILES) | inhibition at 10 µM [%] |
| --- | --- |
| CCC(=O)N1N=C(c2c(C)c3cccnc3[nH]c2=O)CC1c1ccc(OC)cc1 (stereo not drawn) [Example 13, 3-(5-(4-Methoxyphenyl)-1-propionyl-4,5-dihydro-1H-pyrazol-3-yl)-4-methyl-1,8-naphthyridin-2(1H)-one] | ≥ 50 |
| CCC(=O)N1N=C(c2c(C)c3cncnc3[nH]c2=O)CC1c1ccc(OC)cc1 (stereo not drawn) [Example 14, 6-(5-(4-Methoxyphenyl)-1-propionyl-4,5-dihydro-1H-pyrazol-3-yl)-5-methylpyrido-[2,3-d]pyrimidin-7(8H)-one] | < 50 |
| CCC(=O)N1N=C(c2c(C)c3cc(Br)ccc3[nH]c2=O)CC1c1ccc(OC)cc1 (stereo not drawn) [Example 15, 6-bromo-3-(5-(4-methoxyphenyl)-1-propionyl-4,5-dihydro-1H-pyrazol-3-yl)-4-methylquinolin-2(1H)-one] | ≥ 50 |
| CCC(=O)N1N=C(c2c(C)c3nc(Cl)ccc3[nH]c2=O)CC1c1ccc(OC)cc1 (stereo not drawn) [Example 16, 6-chloro-3-(5-(4-methoxyphenyl)-1-propionyl-4,5-dihydro-1H-pyrazol-3-yl)-4-methyl-1,5-naphthyridin-2(1H)-one] | ≥ 50 |
| CCC(=O)N1N=C(c2cc3cc(Cl)ccc3[nH]c2=O)CC1c1ccc(OC)cc1 (stereo not drawn) [Example 17, 6-Chloro-3-(5-(4-methoxyphenyl)-1-propionyl-4,5-dihydro-1H-pyrazol-3-yl)quinolin-2(1H)-one] | ≥ 50 |
| CCC(=O)N1N=C(c2c(C)c3cc(Cl)ccc3n(C)c2=O)CC1c1ccc(OC)cc1 (stereo not drawn) [Example 18, 6-chloro-3-(5-(4-methoxyphenyl)-1-propionyl-4,5-dihydro-1H-pyrazol-3-yl)-1,4-dimethylquinolin-2(1H)-one] | < 50 |
| CCC(=O)N1N=C(c2c(=O)[nH]cc3ccccc23)CC1c1ccc(OC)cc1 (stereo not drawn) [Example 19, 4-(5-(4-methoxyphenyl)-1-propionyl-4,5-dihydro-1H-pyrazol-3-yl)isoquinolin-3(2H)-one] | < 50 |
| CCC(=O)N1N=C(c2c(C)c3ccsc3[nH]c2=O)CC1c1ccc(OC)nc1 (stereo not drawn) [Example 21, 5-(5-(6-methoxypyridin-3-yl)-1-propionyl-4,5-dihydro-1H-pyrazol-3-yl)-4-methylthieno[2,3-b]pyridin-6(7H)-one] | ≥ 50 |
| CCC(=O)N1N=C(c2cc3ccsc3[nH]c2=O)CC1c1ccc(OC)cc1 (stereo not drawn) [Example 22, 5-(5-(4-methoxyphenyl)-1-propionyl-4,5-dihydro-1H-pyrazol-3-yl)thieno[2,3-b]pyridin-6(7H)-one] | ≥ 50 |
| CCC(=O)N1N=C(c2c(C3CC3)c3cc(Cl)ccc3[nH]c2=O)CC1c1ccc(OC)cc1 (stereo not drawn) [Example 23, 6-chloro-4-cyclopropyl-3-(5-(4-methoxyphenyl)-1-propionyl-4,5-dihydro-1H-pyrazol-3-yl)quinolin-2(1H)-one] | ≥ 50 |
| CCC(=O)N1N=C(c2c(C)c3cc(Cl)ccc3[nH]c2=O)CC1c1cn(C)c2ccccc12 (stereo not drawn) [Example 24, 6-chloro-4-methyl-3-(5-(1-methyl-1H-indol-3-yl)-1-propionyl-4,5-dihydro-1H-pyrazol-3-yl)quinolin-2(1H)-one] | ≥ 50 |
| CCC(=O)N1N=C(c2c(C)c3ccsc3[nH]c2=O)CC1c1ccc(OC)cn1 (stereo not drawn) [Example 25, 5-(5-(5-methoxypyridin-2-yl)-1-propionyl-4,5-dihydro-1H-pyrazol-3-yl)-4-methylthieno[2,3-b]pyridin-6(7H)-one] | < 50 |
| CCC(=O)N1N=C(c2c(C)c3ccsc3[nH]c2=O)CC1c1ccc(=O)[nH]c1 (stereo not drawn) [Example 26, 4-methyl-5-(5-(6-oxo-1,6-dihydropyridin-3-yl)-1-propionyl-4,5-dihydro-1H-pyrazol-3-yl)thieno[2,3-b]pyridin-6(7H)-one] | < 50 |
| CCC(=O)N1N=C(c2c(C)c3ccsc3[nH]c2=O)CC1c1ccc(OC)s1 (stereo not drawn) [Example 29, 5-(5-(5-methoxythiophen-2-yl)-1-propionyl-4,5-dihydro-1H-pyrazol-3-yl)-4-methylthieno[2,3-b]pyridin-6(7H)-one] | ≥ 50 |
| CCC(=O)N1N=C(c2c(C)c3ccsc3[nH]c2=O)CC1c1cnc(OC)s1 (stereo not drawn) [Example 30, 5-(5-(2-methoxythiazol-5-yl)-1-propionyl-4,5-dihydro-1H-pyrazol-3-yl)-4-methylthieno[2,3-b]pyridin-6(7H)-one] | ≥ 50 |
| CCC(=O)N1N=C(c2c(C)c3ccsc3[nH]c2=O)CC1c1csc(Br)c1 (stereo not drawn) [Example 31, 5-(5-(5-bromothiophen-3-yl)-1-propionyl-4,5-dihydro-1H-pyrazol-3-yl)-4-methylthieno[2,3-b]pyridin-6(7H)-one] | < 50 |
| CCC(=O)N1N=C(c2c(C)c3ccsc3[nH]c2=O)CC1c1ccccc1 (stereo not drawn) [Example 32, 4-methyl-5-(5-phenyl-1-propionyl-4,5-dihydro-1H-pyrazol-3-yl)thieno[2,3-b]pyridin-6(7H)-one] | < 50 |

| Structure (SMILES) | inhibition at 10 µM [%] |
| --- | --- |
| CCC(=O)N1N=C(c2c(C)c3ccsc3[nH]c2=O)CC1c1cc(Br)cs1 (stereo not drawn) [Example 34, 5-(5-(4-bromothiophen-2-yl)-1-propionyl-4,5-dihydro-1H-pyrazol-3-yl)-4-methylthieno[2,3-b]pyridin-6(7H)-one] | < 50 |
| CCC(=O)N1N=C(c2c(C)c3ccsc3[nH]c2=O)CC1c1ccncc1 (stereo not drawn) [Example 35, 4-methyl-5-(1-propionyl-5-(pyridin-4-yl)-4,5-dihydro-1H-pyrazol-3-yl)thieno[2,3-b]pyridin-6(7H)-one] | < 50 |
| CCC(=O)N1N=C(c2c(C)c3ccsc3[nH]c2=O)CC1c1cccnc1 (stereo not drawn) [Example 36, 4-methyl-5-(1-propionyl-5-(pyridin-3-yl)-4,5-dihydro-1H-pyrazol-3-yl)thieno[2,3-b]pyridin-6(7H)-one] | < 50 |
| CCC(=O)N1N=C(c2c(C)c3ccsc3[nH]c2=O)CC1c1ccc(N2CCN(C)CC2)cc1 (stereo not drawn) [Example 38, 4-methyl-5-(5-(4-(4-methylpiperazin-1-yl)phenyl)-1-propionyl-4,5-dihydro-1H-pyrazol-3-yl)thieno[2,3-b]pyridin-6(7H)-one] | ≥ 50 |
| CCC(=O)N1N=C(c2c(C)c3ccsc3[nH]c2=O)CC1c1ccc(N(C)C)cc1 (stereo not drawn) [Example 39, 5-(5-(4-(dimethylamino)phenyl)-1-propionyl-4,5-dihydro-1H-pyrazol-3-yl)-4-methylthieno[2,3-b]pyridin-6(7H)-one] | ≥ 50 |
| CCC(=O)N1N=C(c2c(C)c3c(Cl)csc3[nH]c2=O)CC1c1ccc(OC)cc1 (stereo not drawn) [Example 40, 3-chloro-5-(5-(4-methoxyphenyl)-1-propionyl-4,5-dihydro-1H-pyrazol-3-yl)-4-methylthieno[2,3-b]pyridin-6(7H)-one] | < 50 |
| CCC(=O)N1N=C(c2c(C)c3ccsc3[nH]c2=O)CC1c1ccc(C)s1 (stereo not drawn) [Example 41, 5-(5-(5-methylthiophen-2-yl)-1-propionyl-4,5-dihydro-1H-pyrazol-3-yl)-4-methylthieno[2,3-b]pyridin-6(7H)-one] | ≥ 50 |
| CCC(=O)N1N=C(c2c(C)c3ccsc3[nH]c2=O)CC1c1ccc(C(F)(F)F)cc1 (stereo not drawn) [Example 42, 4-methyl-5-(1-propionyl-5-(4-(trifluoromethyl)phenyl)-4,5-dihydro-1H-pyrazol-3-yl)thieno[2,3-b]pyridin-6(7H)-one] | ≥ 50 |
| CCC(=O)N1N=C(c2c(C)c3ccsc3[nH]c2=O)CC1c1ccc(C(F)F)cc1 (stereo not drawn) [Example 43, 5-(5-(4-(difluoromethyl)phenyl)-1-propionyl-4,5-dihydro-1H-pyrazol-3-yl)-4-methylthieno[2,3-b]pyridin-6(7H)-one] | ≥ 50 |
| CCC(=O)N1N=C(c2c(C)c3ccsc3[nH]c2=O)CC1c1ccc(CC)cc1 (stereo not drawn) [Example 44, 5-(5-(4-ethylphenyl)-1-propionyl-4,5-dihydro-1H-pyrazol-3-yl)-4-methylthieno[2,3-b]pyridin-6(7H)-one] | ≥ 50 |
| CCC(=O)N1N=C(c2c(C)c3ccsc3[nH]c2=O)CC1c1ccc(N2CCCC2)cc1 (stereo not drawn) [Example 46, 4-methyl-5-(1-propionyl-5-(4-(pyrrolidin-1-yl)phenyl)-4,5-dihydro-1H-pyrazol-3-yl)thieno[2,3-b]pyridin-6(7H)-one] | ≥ 50 |
| CCC(=O)N1N=C(c2c(C)c3ccsc3[nH]c2=O)CC1c1ccc(C2CC2)cc1 (stereo not drawn) [Example 47, 5-(5-(4-cyclopropylphenyl)-1-propionyl-4,5-dihydro-1H-pyrazol-3-yl)-4-methylthieno[2,3-b]pyridin-6(7H)-one] | < 50 |
| CCC(=O)N1N=C(c2c(C)c3ccsc3[nH]c2=O)CC1c1csc(C)n1 (stereo not drawn) [Example 48, 4-methyl-5-(5-(2-methylthiazol-4-yl)-1-propionyl-4,5-dihydro-1H-pyrazol-3-yl)thieno[2,3-b]pyridin-6(7H)-one] | < 50 |
| CCC(=O)N1N=C(c2c(C)c3ccsc3[nH]c2=O)CC1c1ccc(C(C)C)cc1 (stereo not drawn) [Example 49, 5-(5-(4-isopropylphenyl)-1-propionyl-4,5-dihydro-1H-pyrazol-3-yl)-4-methylthieno[2,3-b]pyridin-6(7H)-one] | < 50 |
| CCC(=O)N1N=C(c2c(C)c3ccsc3[nH]c2=O)CC1c1cnc(C)cc1C (stereo not drawn) [Example 50, 5-(5-(4,6-dimethylpyridin-3-yl)-1-propionyl-4,5-dihydro-1H-pyrazol-3-yl)-4-methylthieno[2,3-b]pyridin-6(7H)-one] | < 50 |
| CCC(=O)N1N=C(c2c(C)c3ccsc3[nH]c2=O)CC1c1cnc(C)nc1 (stereo not drawn) [Example 51, 4-methyl-5-(5-(2-methylpyrimidin-5-yl)-1-propionyl-4,5-dihydro-1H-pyrazol-3-yl)thieno[2,3-b]pyridin-6(7H)-one] | < 50 |
